Patent US10323041B2, “Bicyclic derivatives, a process for their preparation and pharmaceutical compositions containing them” (LES LABORATOIRES SERVIER, priority 2015, dated 2019)

molecular target: Mcl-1 protein (Homo sapiens, UniProt Q07820); test: Inhibition of Mcl-1 by the fluorescence polarisation technique; format: binding; settings: @ 10 μM test compound; partial inhibitors
Protocol: The relative binding potency of each compound was determined via fluorescence Polarisation (FP). The method utilised a Fluorescein labelled ligand Fluorescein-βAla-Ahx-[A-REIGAQLRRMADDLNAQY (SEQ ID NO: 1)]-OH; mw 2,765) which binds to the Mcl-1 protein (such that corresponds to the UniProtKB® primary accession number: Q07820) leading to an increased anisotropy measured in milli-polarisation (mP) units using a reader. The addition of a compound which binds competitively to the same site as the ligand will result in a greater proportion of unbound ligand in the system indicated by a decrease in mP units.
Method 1: An 11 point serial dilution of each compound was prepared in DMSO and 2 μl transferred into flat bottomed, low binding, 384-well plate (final DMSO concentration 5%). 38 μl of buffer (10 mM 4-(2-hydroxyethyl)-1-piperazineethanesulfonic acid [HEPES], 150 mM NaCl, 0.05% Tween 20, pH 7.4), containing the Fluorescein labelled ligand (final concentration 1 nM) and Mcl-1 protein (final concentration 5 nM) was then added.
(§1) Assay plates were incubated ˜2 hours at room temperature before FP was measured on a […] Synergy2 reader (Ex. 528 nm, Em. 640 nm, Cut off 510 nm) and mP units calculated. The binding of increasing doses of test compound was expressed as a percentage reduction in mP compared to a window established between ‘5% DMSO only’ and ‘100% inhibition’ controls. 11-point dose response curves were plotted with XL-Fit software using a 4-Parameter Logistic Model (Sigmoidal Dose-Response Model) and the inhibitory concentrations that gave a 50% reduction in mP (IC50) were determined. Results obtained using Method 1 are presented in Table 1 below; IC50 of Mcl-1 inhibition obtained using Method 1 are not underlined.
Method 2: An 11 point serial dilution of each compound was prepared in DMSO and 2 μl transferred into flat bottomed, low binding, 384-well plate (final DMSO concentration 5%). 38 μl of buffer (20 mM Na2HPO4, 1 mM EDTA, 50 mM NaCl, pH 7.4), containing the Fluorescein labelled ligand (final concentration 10 nM) and Mcl-1 protein (final concentration 10 nM) was then added.
as §1, with “inhibition’ controls (50 μM unlabelled ligand).” for “inhibition’ controls.”, “Method 2” for “Method 1”, “are” for “are not”

Mcl-1 protein, sequence (Q07820 whole entry): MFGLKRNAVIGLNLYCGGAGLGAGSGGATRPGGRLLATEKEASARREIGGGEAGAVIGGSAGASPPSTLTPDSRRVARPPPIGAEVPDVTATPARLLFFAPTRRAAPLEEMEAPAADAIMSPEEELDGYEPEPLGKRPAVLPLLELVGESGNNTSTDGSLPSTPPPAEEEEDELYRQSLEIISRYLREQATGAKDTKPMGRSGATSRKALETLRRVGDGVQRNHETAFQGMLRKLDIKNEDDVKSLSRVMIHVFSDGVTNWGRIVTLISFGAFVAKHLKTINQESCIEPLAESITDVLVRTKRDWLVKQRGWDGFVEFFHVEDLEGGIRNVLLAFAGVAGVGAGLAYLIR

Row | percentage fluorescence polarization inhibition [% @ 10 μM] | SMILES
1 | 65.85 | CCc1sc2cccc(OC(Cc3ccccc3)C(=O)O)c2c1-c1ccc(O)c(Cl)c1C [Example 50, (2R)-2-{[(3Ra)-3-(3-chloro-4-hydroxy-2-methylphenyl)-2-ethyl-1-benzothiophen-4-yl]oxy}-3-phenylpropanoic acid]
2 | 52.8 | COc1ccccc1CC(Oc1cccc2oc(-c3ccc(F)cc3)c(-c3ccc(OCCN4CCN(C)CC4)c(Cl)c3C)c12)C(=O)O [Example 61, (2R)-2-{[(3Ra)-3-{3-chloro-2-methyl-4-[2-(4-methylpiperazin-1-yl)ethoxy]phenyl}-2-(4-fluorophenyl)-1-benzofuran-4-yl]oxy}-3-(2-methoxyphenyl)propanoic acid]
3 | 55.35 | COc1ccccc1C[C@@H](Oc1cccc2cc(-c3ccc(F)cc3)n(-c3ccc(OCCN4CCN(C)CC4)c(Cl)c3C)c12)C(=O)O [Example 55]

same assay, conditions: @ 50 μM test compound; partial inhibitors

Row | SMILES | percentage fluorescence polarization inhibition [% @ 50 μM]
4 | CCc1c(-c2cccc(Cl)c2C)c2c(NC(Cc3ccccc3)C(=O)O)ncnc2n1CC(F)(F)F [Example 28, N-[(5Ra)-5-(3-chloro-2-methylphenyl)-6-ethyl-7-(2,2,2-trifluoroethyl)-7H-pyrrolo[2,3-d]pyrimidin-4-yl]-D-phenylalanine] | 63.25
5 | C=CCn1c(Br)c(-c2cccc(Cl)c2C)c2c(NC(Cc3ccccc3)C(=O)O)ncnc21 [Example 43, N-[6-bromo-(5Ra)-5-(3-chloro-2-methylphenyl)-7-(prop-2-en-1-yl)-7H-pyrrolo[2,3-d]pyrimidin-4-yl]-D-phenylalanine] | 66.9

More lines, now with the values ahead:

Row | percentage fluorescence polarization inhibition [% @ 50 μM] | SMILES
6 | 74.2 | CCc1c(-c2cccc(Cl)c2C)c2c(NC(Cc3ccccc3)C(=O)O)ncnc2n1CC1CC1 [Example 22, N-[(5Ra)-5-(3-chloro-2-methylphenyl)-7-(cyclopropylmethyl)-6-ethyl-7H-pyrrolo[2,3-d]pyrimidin-4-yl]-D-phenylalanine]
7 | 64.8 | CCc1c(-c2cccc(Cl)c2C)c2c(NC(Cc3ccccc3)C(=O)O)ncnc2n1C [Example 20, N-[(5Ra)-5-(3-chloro-2-methylphenyl)-6-ethyl-7-methyl-7H-pyrrolo[2,3-d]pyrimidin-4-yl]-D-phenylalanine]

same assay, conditions: Method 1 (not underlined) or Method 2 (underlined); underlining not visible; first value where cell prints two; read-out: IC50 (M) Mcl-1 FP

Row | SMILES | IC50 [M]
8 | COc1ccccc1-c1nccc(COc2ccccc2CC(Oc2cccc3oc(-c4ccc(F)cc4)c(-c4ccc(OCCN5CCN(C)CC5)c(Cl)c4C)c23)C(=O)O)n1 (single isomer, unassigned) [Example 63] | 1.7e-07
9 | Cc1c(Cl)cccc1-c1c2n(c3ncnc(NC(Cc4ccccc4)C(=O)O)c13)CCCC2 (single isomer, unassigned) [Example 48, N-[(5Sa)-5-(3-chloro-2-methylphenyl)-6,7,8,9-tetrahydropyrimido[5,4-b]indolizin-4-yl]-D-phenylalanine] | 5.9e-06
10 | CCc1c(-c2cccc3ccccc23)c2c(N[C@H](Cc3ccccc3)C(=O)O)ncnc2n1CCOc1cccc2ccccc12 (single isomer, unassigned) [Example 15, N-{6-ethyl-5-(naphthalen-1-yl)-7-[2-(naphthalen-1-yloxy)ethyl]-7H-pyrrolo[2,3-d]pyrimidin-4-yl}-D-phenylalanine] | 7.3e-06
11 | CCc1c(-c2cccc3ccccc23)c2c(N[C@H](Cc3ccccc3)C(=O)O)ncnc2n1CCc1ccccc1 (single isomer, unassigned) [Example 17, N-[6-ethyl-5-(naphthalen-1-yl)-7-(2-phenylethyl)-7H-pyrrolo[2,3-d]pyrimidin-4-yl]-D-phenylalanine] | 3.8e-06
12 | CC#CCn1c(CC)c(-c2cccc(Cl)c2C)c2c(NC(Cc3ccccc3)C(=O)O)ncnc21 (single isomer, unassigned) [Example 26, N-[7-(but-2-yn-1-yl)-(5Ra)-5-(3-chloro-2-methylphenyl)-6-ethyl-7H-pyrrolo[2,3-d]pyrimidin-4-yl]-D-phenylalanine] | 5.9e-06
13 | CCc1sc2cccc(OC(Cc3ccccc3)C(=O)O)c2c1-c1ccc(O)c(Cl)c1C [Example 49, (2R)-2-{[(3Sa)-3-(3-chloro-4-hydroxy-2-methylphenyl)-2-ethyl-1-benzothiophen-4-yl]oxy}-3-phenylpropanoic acid] | 3.9e-08
14 | Cc1c(-c2c(-c3ccc(F)cc3)oc3cccc(OC(Cc4ccccc4OCC(F)(F)F)C(=O)O)c23)ccc(OCCN2CCN(C)CC2)c1Cl [Example 65, (2R)-2-{[(3Sa)-3-{3-chloro-2-methyl-4-[2-(4-methylpiperazin-1-yl)ethoxy]phenyl}-2-(4-fluorophenyl)-1-benzofuran-4-yl]oxy}-3-[2-(2,2,2-trifluoroethoxy)phenyl]propanoic acid] | 1e-06
15 | Cc1c(-c2c(-c3ccc(F)cc3)oc3cc(F)cc(OC(Cc4ccccc4OCC(F)(F)F)C(=O)O)c23)ccc(OCCN2CCN(C)CC2)c1Cl [Example 66, (2R)-2-{[(3Sa)-3-{3-chloro-2-methyl-4-[2-(4-methylpiperazin-1-yl)ethoxy]phenyl}-6-fluoro-2-(4-fluorophenyl)-1-benzofuran-4-yl]oxy}-3-[2-(2,2,2-trifluoroethoxy)phenyl]propanoic acid] | 1.6e-06
16 | Cc1c(Cl)cccc1-c1c2n(c3ncnc(NC(Cc4ccccc4)C(=O)O)c13)CCCC2 (single isomer, unassigned) [Example 47, N-[(5Ra)-5-(3-chloro-2-methylphenyl)-6,7,8,9-tetrahydropyrimido[5,4-b]indolizin-4-yl]-D-phenylalanine] | 1.1e-05
17 | CC#CCn1c(CC)c(-c2cccc(Cl)c2C)c2c(NC(Cc3ccccc3)C(=O)O)ncnc21 (single isomer, unassigned) [Example 27, N-[7-(but-2-yn-1-yl)-(5Sa)-5-(3-chloro-2-methylphenyl)-6-ethyl-7H-pyrrolo[2,3-d]pyrimidin-4-yl]-D-phenylalanine] | 3.3e-07
18 | CCc1c(-c2cccc(Cl)c2C)c2c(NC(Cc3ccccc3)C(=O)O)ncnc2n1CC(F)(F)F [Example 29, N-[(5Sa)-5-(3-chloro-2-methylphenyl)-6-ethyl-7-(2,2,2-trifluoroethyl)-7H-pyrrolo[2,3-d]pyrimidin-4-yl]-D-phenylalanine] | 8.5e-06
19 | CCc1c(-c2cccc(Cl)c2C)c2c(NC(Cc3ccccc3)C(=O)O)ncnc2n1Cc1ccc(OC)cc1 (single isomer, unassigned) [Example 35, N-[(5Sa)-5-(3-chloro-2-methylphenyl)-6-ethyl-7-(4-methoxybenzyl)-7H-pyrrolo[2,3-d]pyrimidin-4-yl]-D-phenylalanine] | 2.9e-07

Next, values leading:

Row | IC50 [M] | SMILES
20 | 4.5e-07 | C=CCCn1c(Br)c(-c2cccc(Cl)c2C)c2c(NC(Cc3ccccc3)C(=O)O)ncnc21 (single isomer, unassigned) [Example 42, N-[6-bromo-7-(but-3-en-1-yl)-(5Sa)-5-(3-chloro-2-methylphenyl)-7H-pyrrolo[2,3-d]pyrimidin-4-yl]-D-phenylalanine]
21 | 3.1e-06 | CCc1c(-c2cccc3ccccc23)c2c(N[C@H](Cc3ccccc3)C(=O)O)ncnc2n1CCCc1ccccc1 (single isomer, unassigned) [Example 18, N-[6-ethyl-5-(naphthalen-1-yl)-7-(3-phenylpropyl)-7H-pyrrolo[2,3-d]pyrimidin-4-yl]-D-phenylalanine]
22 | 4.7e-08 | COc1ccccc1CC(Oc1cccc2cc(-c3ccc(F)cc3)n(-c3ccc(OCCN4CCN(C)CC4)c(Cl)c3C)c12)C(=O)O (stereo not shown) [Example 56]
23 | 3.4e-05 | O=C(O)[C@@H](Cc1ccccc1)Nc1ncnc2[nH]cc(-c3cccc4ccccc34)c12 [Example 11, N-[5-(naphthalen-1-yl)-7H-pyrrolo[2,3-d]pyrimidin-4-yl]-D-phenylalanine]
24 | 6.5e-06 | CCc1c(-c2cccc(Cl)c2C)c2c(NC(Cc3ccccc3)C(=O)O)ncnc2n1Cc1ccccc1 (single isomer, unassigned) [Example 36, N-[7-benzyl-(5Ra)-5-(3-chloro-2-methylphenyl)-6-ethyl-7H-pyrrolo[2,3-d]pyrimidin-4-yl]-D-phenylalanine]
25 | 2.6e-07 | CCc1c(-c2cccc(Cl)c2C)c2c(NC(Cc3ccccc3)C(=O)O)ncnc2n1Cc1cccc2ccccc12 (single isomer, unassigned) [Example 33, N-[(5Sa)-5-(3-chloro-2-methylphenyl)-6-ethyl-7-(naphthalen-1-ylmethyl)-7H-pyrrolo[2,3-d]pyrimidin-4-yl]-D-phenylalanine]
